Measurements reported in US20090131515A1, “Combination of antidiabetic drugs” (SIGMA-TAU INDUSTRIE FARMACEUTICHE RIUNITE S.p.A., priority 2003, published 2009).
Several values for one entry are separate records, joined by “and”; a condition that tells them apart may be missing. Equal values may be shown once. Read-outs that look alike come from different tables or passages of the source.

Legend:
[1] = tested on: C57BL/6J mice on a high-fat diet; assay: Blood glucose of C57BL/6J mice on a high-fat diet, postabsorption conditions; assay type: in vivo, mouse; settings: male C57BL/6J mice on high-fat diet, ST1326 30 mg/kg and metformin 200 mg/kg alone or in combination, twice daily for 15 days, 6 hours after last treatment, mean ± s.e.
Source text: (§1) An example is the C57BL/6 mouse, which, as a result of exposure to a high-fat diet, develops not only insulin resistance but also mild hyperglycaemia (Surwit et al., 37: 1163-1167, 1988; Luo et al., Metabolism 47: 663-668,1998).
(§2) The B6. V-Lep ob/ob, C57BL/KsJ db/db and C57BL/6 mice used in the experiments were supplied by Jackson Lab. (via Charles River).
(§3) Blood samples were taken from ob/ob and db/db mice in standard environmental conditions, on a normal diet (4 RF21, Mucedola) and from C57BL/6J mice on a high-fat diet (D-12331, Research Diets) for 3 months, in postabsorption conditions (fasting from 8.30 a.m. to 4.30 p.m.) from the caudal vein, with the aid of a Jelco 22G catheter (Johnson and Johnson).
(§4) The mice were treated orally twice daily (at 8.30 a.m. and 6.30 p.m.) with ST1326 at the dose of 30 mg/kg and with metformin at the dose of 200 mg/kg, alone or in combination.
(§5) Blood samples were taken on various different days after administration of the products and in different nutritional conditions for the serum glucose determinations, OGTT (Oral Glucose Tolerance Test) and IST (Insulin Suppression Test: Fujita et al., Diabetes 32: 804-810, 1983; Meglasson et al., J. Pharm. Exp. Therap. 266: 1454-1462, 1993; Luo et al., J. Pharm. Exp. Therap. 288: 529-534, 1999).

[2] = tested on: db/db mice; assay: Oral Glucose Tolerance Test (OGTT) in db/db mice; assay type: in vivo, mouse; settings: male db/db mice, fasting overnight; for Blood glucose in the OGTT, 0 min: ST1326 30 mg/kg and metformin 200 mg/kg alone or in combination, twice daily for 37 days, 15 hours after last treatment; for Blood glucose in the OGTT, 30 min / Blood glucose in the OGTT, 60 min / Blood glucose in the OGTT, 120 min / Blood glucose in the OGTT, AUC: same treatment for 37 days; for Blood glucose in the OGTT, 30 min: 30 min after glucose loading; for Blood glucose in the OGTT, 60 min: 60 min after glucose loading; for Blood glucose in the OGTT, 120 min: 120 min after glucose loading; for Blood glucose in the OGTT, AUC: AUC 0-120 min
Source text: as §2, §3, §4, §5
(§6) In the OGTT, blood samples were taken 0, 30, 60 and 120 minutes after glucose loading (3 g/kg).

[3] = tested on: type 2 diabetes patients; settings: cited from earlier work
[4] = tested on: KKAy mouse; settings: cited from earlier work
[5] = tested on: db/db mice; assay: Blood glucose of db/db mice in postabsorption conditions, ST1326 and metformin alone or in combination; assay type: in vivo, mouse; settings: male db/db mice, ST1326 30 mg/kg and metformin 200 mg/kg alone or in combination, twice daily for 16 days, 6 hours after last treatment, mean ± s.e.
Source text: as §2, §3, §4, §5

[6] = tested on: ob/ob mice; assay: Insulin Suppression Test (IST), blood glucose of ob/ob mice; assay type: in vivo, mouse; settings: for Blood glucose levels in the IST: male ob/ob mice, postabsorption, 8 hours after last treatment, mean ± s.e.; for Reduction of hyperglycaemia in the IST: ob/ob mouse
Source text: as §2, §3, §4, §5
In the IST, blood samples were taken 60 min after subcutaneous loading of glucose (3 g/kg), insulin (Humulin R., Lilly 2 U/kg) and somatostatin (0.5 mg/kg).

[7] = tested on: C57BL/6 mice on a high-fat diet; assay: Oral Glucose Tolerance Test (OGTT) in C57BL/6 mice on a high-fat diet; assay type: in vivo, mouse; settings: male C57BL/6 mice on high-fat diet; for Blood glucose in the OGTT, 0 min: ST1326 30 mg/kg and metformin 200 mg/kg alone or in combination, twice daily for 35 days, postabsorption, 6 hours after last treatment; for Blood glucose in the OGTT, 30 min / Blood glucose in the OGTT, 60 min / Blood glucose in the OGTT, 120 min / Blood glucose in the OGTT, AUC: same treatment for 35 days; for Blood glucose in the OGTT, 30 min: 30 min after glucose loading; for Blood glucose in the OGTT, 60 min: 60 min after glucose loading; for Blood glucose in the OGTT, 120 min: 120 min after glucose loading; for Blood glucose in the OGTT, AUC: AUC 0-120 min
Source text: as §1, §2, §3, §4, §5, §6

[8] = tested on: db/db mice; assay: Serum glucose of db/db mice treated with ST1326 for 45 days, postabsorption conditions; assay type: in vivo, mouse; settings: for Lowering serum glucose: db/db mice; for Serum glucose levels: male db/db mice, postabsorption, 8 hours after last treatment, mean ± s.e.
Source text: as §2, §3

[9] = tested on: ob/ob mice; assay: Blood glucose of ob/ob mice in feeding conditions; assay type: in vivo, mouse; settings: male ob/ob mice, ST1326 30 mg/kg and metformin 200 mg/kg alone or in combination, twice daily for 11 days, 15 hours after last treatment, mean ± s.e.
Source text: as §2, §3, §4, §5

[10] = ST1326 30 mg/kg and metformin 200 mg/kg alone or in combination, twice daily for 18 days

SMILES | Blood glucose levels [1] [mg/dL] | Blood glucose in the OGTT, 0 min [2] [mg/dL] | Blood glucose in the OGTT, 30 min [2] [mg/dL] | Blood glucose in the OGTT, 60 min [2] [mg/dL] | Blood glucose in the OGTT, 120 min [2] [mg/dL] | Blood glucose in the OGTT, AUC [2] [mg·min/dL] | Blood glucose levels [5] [mg/dL] | Blood glucose levels in the IST [6, 10] [mg/dL] | Blood glucose in the OGTT, 0 min [7] [mg/dL] | Blood glucose in the OGTT, 30 min [7] [mg/dL] | Blood glucose in the OGTT, 60 min [7] [mg/dL] | Blood glucose in the OGTT, 120 min [7] [mg/dL] | Blood glucose in the OGTT, AUC [7] [mg·min/dL] | also measured
CN(C)C(=N)N=C(N)N [METFORMIN, metformin] | 146.1 ± 9.2 | 195.5 ± 21.5 | 530.9 ± 34.6 | 456.8 ± 52.4 | 344.4 ± 40.9 | 49700 ± 4720 | 337.8 ± 33.1 | 433.7 ± 34.8 | 141.1 ± 11.4 | 241.2 ± 18.9 | 212.3 ± 5.0 | 186.2 ± 15.1 | 24500 ± 1180 | Reduction of hyperglycaemia ([3]; in combination with sulphonylureas): 25%; Reduction of hyperglycaemia ([3]; monotherapy after the failure of diet and physical exercise): 20% and 13-37%; Incidence of diarrhoea, nausea and gastrointestinal disorders ([3]; patients on metformin): approximately 20%; Reduction of hyperglycaemia ([4]; 200 mg/kg/day): ineffective; Reduction of hyperglycaemia ([4]; 900 mg/kg/day): 50%; Blood glucose levels in the IST ([6]; oral metformin 300 mg/kg twice daily for 8 days): 412.1 ± 3.5 □ mg/dl; Reduction of hyperglycaemia in the IST ([6]; 200 mg/kg/day): ineffective; Reduction of hyperglycaemia in the IST ([6]; 600 mg/kg/day): 22%
CCCCCCCCCCCCCCNC(=O)N[C@H](CC(=O)[O-])C[N+](C)(C)C [ST1326, R-4-trimethylammonio-3-(tetradecylcarbamoyl)-amino-butyrate] | 167.3 ± 4.7 | 175.3 ± 25.6 | 557.2 ± 30.6 | 498.3 ± 23.5 | 284.6 ± 20.8 | 50300 ± 2430 | 370.7 ± 30.0 | 524.2 ± 56.2 | 156.0 ± 7.8 | 236.3 ± 11.2 | 207.0 ± 9.9 | 212.9 ± 8.6 | 25100 ± 652 | Lowering serum glucose ([8]; dose of 40 mg/kg/day): inactive; Lowering serum glucose ([8]; dose of 100 mg/kg/day): effective; Serum glucose levels ([8]; oral 20 mg/kg twice daily for 45 days): 562 ± 40 mg/dL; Serum glucose levels ([8]; oral 50 mg/kg twice daily for 45 days): 350 ± 48 Δ mg/dl; Blood glucose levels [9]: 394.8 ± 25.7 mg/dL
